Results as given in article PMC5642495, “Characterization of a novel androgen receptor (AR) coregulator RIPK1 and related chemicals that suppress AR-mediated prostate cancer growth via peptide and chemical screening” (Oncotarget, 2017).

What was measured:
AR = system: AR; parameters: method as in PMID 24742982; details: cited from earlier work
AR transactivation = test: AR transcriptional reporter assay in PC-3 cells; format: cell-based, human; details: 10 nM DHT, 1 µM
Method: Figure 1 Associations between RIPK1 and AR (A) Co-IP of Flag-RIPK1 with Flag-AR in the 293T cell line. Extracts of 293T cells overexpressing 3xFlag-RIPK1 and 3xFlag-AR were treated with […]. IP was performed using anti-AR (C19) or anti-RIPK1 antibody or normal rabbit serum (negative control), followed by immunoblotting (IB) with antibodies against AR or RIPK1. (B) RIPK1 interacts with full-length AR and the N- and C-terminal regions of AR in GST pull-down assays. Mutation of the FxxFY motif to AxxAA in RIPK1 reduced interactions with AR. […] (C) Transfection of PC-3 prostate cancer cells with AR and RIPK1. PC-3 cells in 24-well plates were co-transfected with 300 ng MMTV-LUC reporter plasmid and 0.5 ng SV40-Renilla luciferase plasmid, together with 100 ng pCMV-Flag-AR and 100, 300 or 500 ng p3xFLAG- RIPK1. The total plasmid DNA content was made up to 1 µg with pCMV. After 16 h, ethanol or 10 nM DHT was added and cells incubated for an additional 16 h. DHT was used as the AR ligand while ARA70N served as the positive control. Relative LUC activity was determined using the dual luciferase system. (D) RIPK1 functional domain mapping in relation to AR transactivation. PC-3 cells were transfected with pCMV-Flag-AR and RIPK1 expression plasmid, P3xFlag-RIPK1 full-length, P3xFlag-RIPK1-(240-671) or P3xflag-RIPK1-(1-558) plasmid, and cultured overnight. Ethanol or 10 nM DHT was added and cells incubated for an additional 16 h. Relative LUC activity was determined using the dual luciferase system. (E) RIPK1 is expressed in benign prostatic hyperplasia tissue, displaying strong positivity (3+, > 90%) in the gland area but weak (1+, 50%) staining in the background. (F) Human prostate cancer tissues were immunostained for RIPK1. “T” indicates the tumor area (right side) and “Non-T” the non-tumor area (left side). RIPK1 expression was weak (1+, 80%) in the cancer area but remained strong (3+, 70%) in the peri-cancer area. The figures are representative of three benign prostatic gland hyperplasia and cancer tissues.
The PC-3 prostate cancer cell line was used for experiments. […]

[1] = target: W741L-AR (bicalutamide-associated mutant androgen receptor, mammalian two-hybrid) (human); test: two-hybrid; mammalian two-hybrid (MM2H) in PC-3 cells; Gal-4 peptide fusion with AR; CDX (bicalutamide) 10 µM; values relative to Gal-4 alone
Sequence of W741L-AR (bicalutamide-associated mutant androgen receptor, mammalian two-hybrid) (human) (P10275 whole entry, stated change not applied, the tested form may be a part): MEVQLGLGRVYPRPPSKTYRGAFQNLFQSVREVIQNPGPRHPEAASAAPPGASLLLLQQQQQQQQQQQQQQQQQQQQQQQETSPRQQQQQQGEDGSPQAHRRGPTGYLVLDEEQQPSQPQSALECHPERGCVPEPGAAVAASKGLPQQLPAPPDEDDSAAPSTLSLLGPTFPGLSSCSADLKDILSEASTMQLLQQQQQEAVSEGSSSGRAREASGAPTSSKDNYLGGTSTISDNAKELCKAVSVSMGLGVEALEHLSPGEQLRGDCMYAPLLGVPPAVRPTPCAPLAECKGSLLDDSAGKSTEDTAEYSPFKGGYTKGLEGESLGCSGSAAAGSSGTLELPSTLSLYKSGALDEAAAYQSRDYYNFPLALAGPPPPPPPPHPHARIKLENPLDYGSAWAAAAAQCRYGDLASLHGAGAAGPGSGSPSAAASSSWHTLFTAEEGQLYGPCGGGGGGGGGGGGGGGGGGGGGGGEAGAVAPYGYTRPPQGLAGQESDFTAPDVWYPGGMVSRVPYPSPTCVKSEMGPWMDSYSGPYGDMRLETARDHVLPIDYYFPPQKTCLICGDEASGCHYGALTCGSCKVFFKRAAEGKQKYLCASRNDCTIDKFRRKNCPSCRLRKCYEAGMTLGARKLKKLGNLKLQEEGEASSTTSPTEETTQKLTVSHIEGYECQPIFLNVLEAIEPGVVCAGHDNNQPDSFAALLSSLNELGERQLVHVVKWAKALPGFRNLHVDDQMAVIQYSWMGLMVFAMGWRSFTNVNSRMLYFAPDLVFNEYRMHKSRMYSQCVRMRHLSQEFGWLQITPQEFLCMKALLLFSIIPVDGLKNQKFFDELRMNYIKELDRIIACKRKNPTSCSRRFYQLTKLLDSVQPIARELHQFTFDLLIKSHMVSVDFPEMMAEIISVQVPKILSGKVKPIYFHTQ

| Molecule | relative reporter activity in the mammalian two-hybrid assay (Gal-4 alone = 1) [1] | other results |
| --- | --- | --- |
| Nc1cc(N2CCCCC2)nc(N)[n+]1[O-] [Minoxidil] |  | suppression of AR related function (AR): suppress AR related function |
| CNC(=O)c1ccc(N2C(=S)N(c3ccc(C#N)c(C(F)(F)F)c3)C(=O)C2(C)C)cc1F [enzalutamide, reference compound] |  | suppression of AR transactivation (AR transactivation): suppressed AR transactivation |
| GIEEKFRPFYLSQLE [RIP-p, short FxxFY-containing peptide of RIPK1 (No. 13)] | 554 |  |
| NTNAFSRLFYPS [#3-18 peptide (No. 12, positive control; GAL4-DBD-3-18)] | 128 |  |
